Measured values: publication PMC6910931, “Converging TLR9 and PI3Kgamma signaling induces sterile inflammation and organ damage” (Scientific Reports, 2019)
Entries after “also recorded” stand apart in the source; their conditions may differ.

Columns and labels:
C57BL/6 mice [1] = test: APAP-induced liver injury (DILI) model; type: in vivo; conditions: for reduction in serum ALT levels: AS605240 20 mg/Kg oral 6 and 12 hours after APAP
Experimental: Mice were fasted for 15 hours before oral APAP administration (500 mg/Kg) or vehicle (sterile saline). After 24 hours mice were anesthetized for respiratory mechanics analysis (described below) and then killed for blood (serum), liver, bronchoalveolar lavage fluid (BALF), and lung collection. Alanine aminotransferase (ALT) levels were measured in the serum using an enzyme activity test (Bioclin). The myeloperoxidase activity assay was performed as described before. BALF was performed by washing the lungs twice with 1 mL of PBS 10 mM EDTA with a polyethylene cannula 18 G resulting in a total of 2 mL of lavage. Cells were centrifuged and used for total cell count and differential cell count after Romanowsky staining (Panótico Rápido LB)[59]. Fragments of liver and the left lobe of the lungs were fixed and then sectioned for histological analysis (Haematoxylin and Eosin). For the drug-induced liver injury model, mice were orally treated with AS605240 6 and 12 hours after APAP treatment or with n-Acetylcysteine (NAC) 1 hour before APAP or 6 and 12 hours after APAP treatment. AS605240 was diluted in 0,9% Saline + 0.5% CMC + 0.1% Tween 20 and given in a dose of 20 mg/Kg and NAC was diluted in 0.9% saline and given in a dose of 600 mg/Kg.
Animals were anesthetized with a mixture of Ketamine/Xylazine (200 mg/Kg and 15 mg/Kg, respectively) as indicated by Buxco. Dynamic compliance (mL/cm H2O), lung resistance (cm H2O × s/mL) and Forced Expiratory Volume at 100 ms (FEV100) (mL) were assessed in tracheostomized and mechanically ventilated mice using Forced Manoeuvres Platform (Buxco)[53].
(§1) In this study, female C57BL/6 mice from 8 to 12 weeks of age were used in all experiments except for the chimaera mice. Animals were obtained from the UFMG’s Centro de Bioterismo and kept in the Laboratório de Imunofarmacologia with food and water ad libitum and day/night light cycles. For all investigations, mice were humanely sacrificed using an intra-peritoneal overdose of Ketamine/Xylazine at a dose equivalent to at least five times the dose used for anesthetising the mice. The animal studies presented here were registered and approved by the UFMG’s Comitê de Ética em Utilização Animal (CEUA) No. 191/2010 and 51/2011 and all the procedures were performed in accordance with the guidelines of the Conselho Nacional De Controle De Experimentação Animal’s resolution of Brazilian Ministry of Science, Technology, Innovation and Communication.

C57BL/6 mice [2] = test: CpG-induced pleurisy model; type: in vivo; conditions: CpG 750 ng/cavity, 12 hours
Experimental: Animals received one single injection of C-class CpG in the pleural cavity with the indicated dose of agonist. At indicated timepoints, mice were anesthetized intraperitoneally with a mixture of Ketamine/Xylazine and then killed with overdose of intravenous anaesthetic (80 mg/Kg and 15 mg/Kg, respectively). Pleural cavity was washed two times with 1 mL of PBS 10 mM EDTA resulting in a total of 2 mL of lavage. Cells were centrifuged and used for total cell count and differential cell count after Romanowsky staining (Panótico Rápido LB). For the pleurisy model, mice were orally treated with AS605240 twice: 1 h prior the CpG injection and then 6 h after CpG, 20 mg/kg diluted in 0,9% Saline + 0.5% CMC + 0.1% Tween 20.
as §1

[3] = APAP 500 mg/Kg, AS605240 20 mg/Kg, vs WT mice

SMILES	lung remote damage (histological score of lung) (C57BL/6 mice [1]; APAP 500 mg/Kg, AS605240 20 mg/Kg)	reduction in serum ALT levels (C57BL/6 mice [1]; APAP 500 mg/Kg, 24 h)	reduction in serum ALT levels (C57BL/6 mice [1]; APAP 500 mg/Kg, 24 h, listed as AS650240)	ALT levels in the serum (C57BL/6 mice [1]; [3])	MPO levels in the liver (C57BL/6 mice [1]; [3])	areas of necrotic tissue in the liver (C57BL/6 mice [1]; [3])	migration of mononuclear cells into the pleural cavity (C57BL/6 mice [2]; AS605240 20 mg/kg oral)	neutrophil recruitment into the pleural cavity (C57BL/6 mice [2]; AS605240 20 mg/kg oral)	total leukocytes recruited into the pleural cavity (C57BL/6 mice [2]; AS605240 20 mg/kg oral 1 h prior and 6 h after CpG, vs untreated WT)	serum ALT levels, therapeutic treatment (C57BL/6 mice [1]; NAC 600 mg/Kg 6 and 12 hours after APAP, 24 h)	serum ALT levels, prophylactic treatment (C57BL/6 mice [1]; NAC 600 mg/Kg 1 hour before APAP, 24 h)
O=C1NC(=O)/C(=C\c2ccc3nccnc3c2)S1 [AS605240]	reduce lung remote damage	approximately 50%	50%	lower levels of ALT in the serum	lower MPO levels in the liver	less areas of necrotic tissue	lower effect	reduced neutrophil recruitment	less leukocytes recruited into the pleural cavity	–	–
CC(=O)N[C@@H](CS)C(=O)O [NAC, N-acetyl-cysteine]	–	–	–	–	–	–	–	–	–	not able to reduce ALT levels; also recorded: no impact	completely abrogated the rise of ALT levels
